Experimental data: PubChem BioAssay AID1963964 (Molecular Pharmacology Branch, DTP, NCI, 2024)

Tested on: 997726-040-R-J2-PDC tumor spheroids, viability
Experiment: Anticancer human tumor 997726-040-R-J2-PDC patient-derived squamous cell lung carcinoma cell line growth inhibition [PI3K]
Conditions: spheroids with HUVEC and MSC; for IC50: curve of first compound; for viability, T/C: stronger effect = lower value
Source text: Combinatorial screen of targeted agents with the PI3K inhibitors inavolisib, alpelisib, duvelisib, and copanlisib in multi-cell type tumor spheroids
A high-throughput screen of multi-cell type tumor spheroids was designed to identify active combinations of targeted small molecules and PI3K pathway inhibitors. Complex spheroids include a stromal component modeled by human endothelial cells (HUVEC) and fibroblasts modeled by human mesenchymal stem cells (MSCs). The concentration ranges selected for each drug and investigational agent were based upon clinically achievable concentrations if the clinical Cmax of the agent was known.
Compounds. The drugs and investigational agents: inavolisib (NSC800729), alpelisib (NSC765974), duvelisib (NSC772469), copanlisib (NSC816437), ipatasertib (NSC767898), afuresertib (NSC778305), talazoparib (NSC767125), sapanisertib (NSC764658), selumetinib (NSC741078), tovorafenib (DAY101, NSC766906), vemurafenib (NSC761431), ravoxertinib (NSC781343), sotorasib (NSC818433), MRTX1133 (NSC 836407), abemaciclib (NSC 768073), palbociclib (NSC758247), venetoclax (NSC 766270), SY5609 (NSC837396), enzalutamide (NSC755605), and darolutamide (NSC825331), were obtained from the National Cancer Institute (NCI) Developmental Therapeutics Program Chemical Repository. The FDA-approved anticancer drug set is available from the NCI Developmental Therapeutics Program. […] The stock solutions were prepared in dimethyl sulfoxide (DMSO, Sigma-Aldrich, St. Louis, MO, cat. D2650) at 800-fold the tested concentration and stored at -70 degrees C prior to their use. All drugs and investigational agents were tested over a range starting from a high concentration at or near the clinical Cmax and decreasing in half-log increments. If the clinical Cmax for an agent had not been determined, the highest concentration tested was 10 microM.
Cell Culture. All cells were maintained in an incubator at 37 degrees C and 5% CO2 with 95% humidity. The PDC lines were cultured according to standard operating procedures established by the NCI PDMR (https://pdmr.cancer.gov/sops/default.htm). All PDCs were thawed and cultured in Matrigel-coated flasks prepared with a working solution of 1X Ham's F-12 nutrient mix, without supplementation (Invitrogen, Waltham, MA, cat. 11765054), 100 U/mL penicillin-streptomycin (Invitrogen, cat. 15140122), and 2.5% Matrigel (Corning Inc., Corning, NY, cat. 354248) for the first three passages. The 354836-022-R-J1-PDC, 475296-252-R-J1-PDC, and 997726-040-R-J2-PDC lines were cultured in 6A media, which includes advanced DMEM/F-12 (Thermo Fisher Scientific, cat. 12634028), 10 mM HEPES (Thermo Fisher Scientific, cat. 15630080), 1X GlutaMAX supplement (Thermo Fisher Scientific, cat. 35050061), 0.1 mg/mL primocin (InvivoGen, San Diego, CA, cat. ant-pm-2), 10% defined fetal bovine serum, heat inactivated (HyClone Laboratories Inc., Logan, UT, cat. SH30070.03HI), 50% L-WRN conditioned media (ATCC, cat. CRL-3276), 1.25 mM N-Acetyl-L-cysteine (Sigma-Aldrich, cat. A9165), 10 mM nicotinamide (Sigma-Aldrich, cat. N0636), 1X B-27 supplement (Thermo Fisher Scientific, cat. 17504044), 1X N-2 supplement (Thermo Fisher Scientific, cat. 17502048), and 10 microM Y-27632 dihydrochloride (Tocris Bioscience, Bristol, United Kingdom, cat. 1254). The 624824-186-R-J2-PDC line was cultured in 6C/Colon 1B media, which includes all 6A media components plus 50 ng/mL human EGF recombinant protein (Thermo Fisher Scientific, cat. PHG0311). […]

[1] = second compound 0.00316 µM, first compound 0.0316 µM
[2] = second compound 0.00316 µM, first compound 0.1 µM
[3] = second compound 0.00316 µM, first compound 0.316 µM
[4] = second compound 0.00316 µM, first compound 1 µM
[5] = second compound 0.00316 µM, first compound 3.16 µM
[6] = second compound 0.00316 µM, first compound 10 µM
[7] = second compound 0.01 µM, first compound 0.0316 µM
[8] = second compound 0.01 µM, first compound 0.1 µM
[9] = second compound 0.01 µM, first compound 0.316 µM
[10] = second compound 0.01 µM, first compound 1 µM
[11] = second compound 0.01 µM, first compound 3.16 µM
[12] = second compound 0.01 µM, first compound 10 µM
[13] = second compound 0.0316 µM, first compound 0.0316 µM
[14] = second compound 0.0316 µM, first compound 0.1 µM
[15] = second compound 0.0316 µM, first compound 0.316 µM
[16] = second compound 0.0316 µM, first compound 1 µM
[17] = second compound 0.0316 µM, first compound 3.16 µM
[18] = second compound 0.0316 µM, first compound 10 µM
[19] = second compound 0.1 µM, first compound 0.0316 µM
[20] = second compound 0.1 µM, first compound 0.1 µM
[21] = second compound 0.1 µM, first compound 0.316 µM
[22] = second compound 0.1 µM, first compound 1 µM
[23] = second compound 0.1 µM, first compound 3.16 µM
[24] = second compound 0.1 µM, first compound 10 µM
[25] = second compound 0.316 µM, first compound 0.0316 µM
[26] = second compound 0.316 µM, first compound 0.1 µM
[27] = second compound 0.316 µM, first compound 0.316 µM
[28] = second compound 0.316 µM, first compound 1 µM
[29] = second compound 0.316 µM, first compound 3.16 µM
[30] = second compound 0.316 µM, first compound 10 µM
[31] = second compound 1 µM, first compound 0.0316 µM
[32] = second compound 1 µM, first compound 0.1 µM
[33] = second compound 1 µM, first compound 0.316 µM
[34] = second compound 1 µM, first compound 1 µM
[35] = second compound 1 µM, first compound 3.16 µM
[36] = second compound 1 µM, first compound 10 µM
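Also: spheroids exposed to compounds for seven days before readout.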

CCCS(=O)(=O)Nc1ccc(F)c(C(=O)c2c[nH]c3ncc(-c4ccc(Cl)cc4)cc23)c1F + COc1c(OCCCN2CCOCC2)ccc2c3n(c(=NC(=O)c4cnc(N)nc4)nc12)CCN3
IC50 (second compound 0.00316 µM): 6610 nM | IC50 (second compound 0.01 µM): 5360 nM | IC50 (second compound 0.0316 µM): 31.6 nM | IC50 (second compound 0.1 µM): < 31.6 nM | IC50 (second compound 0.316 µM): < 31.6 nM | IC50 (second compound 1 µM): < 31.6 nM | viability, T/C [1]: 68.1% | viability, T/C [2]: 91.1% | viability, T/C [3]: 101% | viability, T/C [4]: 114% | viability, T/C [5]: 136% | viability, T/C [6]: 20.7% | viability, T/C [7]: 52.6% | viability, T/C [8]: 70.3% | viability, T/C [9]: 69.6% | viability, T/C [10]: 76% | viability, T/C [11]: 94% | viability, T/C [12]: 23.2% | viability, T/C [13]: 39.5% | viability, T/C [14]: 41.8% | viability, T/C [15]: 44.2% | viability, T/C [16]: 49.9% | viability, T/C [17]: 57.1% | viability, T/C [18]: 19.6% | viability, T/C [19]: 24% | viability, T/C [20]: 24.6% | viability, T/C [21]: 25.3% | viability, T/C [22]: 28.4% | viability, T/C [23]: 28% | viability, T/C [24]: 16.5% | viability, T/C [25]: 5.93% | viability, T/C [26]: 6.12% | viability, T/C [27]: 5.74% | viability, T/C [28]: 7.01% | viability, T/C [29]: 8.12% | viability, T/C [30]: 7.64% | viability, T/C [31]: 1.54% | viability, T/C [32]: 1.08% | viability, T/C [33]: 1.77% | viability, T/C [34]: 1.68% | viability, T/C [35]: 2.43% | viability, T/C [36]: 1.82%

CNC(=O)c1ccc(N2C(=S)N(c3ccc(C#N)c(C(F)(F)F)c3)C(=O)C2(C)C)cc1F + CC(Nc1ccc2c(c1)OCCn1cc(N3C(=O)OCC3C(F)F)nc1-2)C(N)=O
IC50 (second compound 0.00316 µM): > 10000 nM | IC50 (second compound 0.01 µM): > 10000 nM | IC50 (second compound 0.0316 µM): > 10000 nM | IC50 (second compound 0.1 µM): < 31.6 nM | IC50 (second compound 0.316 µM): < 31.6 nM | IC50 (second compound 1 µM): < 31.6 nM | viability, T/C [1]: 82.6% | viability, T/C [2]: 86.7% | viability, T/C [3]: 89% | viability, T/C [4]: 88.2% | viability, T/C [5]: 94.8% | viability, T/C [6]: 83.5% | viability, T/C [7]: 74.9% | viability, T/C [8]: 71.5% | viability, T/C [9]: 79.6% | viability, T/C [10]: 72.8% | viability, T/C [11]: 78.8% | viability, T/C [12]: 72.3% | viability, T/C [13]: 59.5% | viability, T/C [14]: 68.3% | viability, T/C [15]: 61% | viability, T/C [16]: 61.4% | viability, T/C [17]: 67.2% | viability, T/C [18]: 57.4% | viability, T/C [19]: 50.2% | viability, T/C [20]: 45.5% | viability, T/C [21]: 45.1% | viability, T/C [22]: 44.3% | viability, T/C [23]: 42.4% | viability, T/C [24]: 40.3% | viability, T/C [25]: 34.6% | viability, T/C [26]: 32.5% | viability, T/C [27]: 31.8% | viability, T/C [28]: 33% | viability, T/C [29]: 28.9% | viability, T/C [30]: 28.6% | viability, T/C [31]: 34.3% | viability, T/C [32]: 27.8% | viability, T/C [33]: 26.7% | viability, T/C [34]: 29.6% | viability, T/C [35]: 21.4% | viability, T/C [36]: 24.2%
